The structures appear in SMILES notation.

Experimental findings from US9629847B2, “Compositions and methods for treating symptoms of inflammatory related conditions using a combination of an antihistamine and a stimulant” (priority 2011, dated 2017) are described below.

The test system of this data set is TPA induction of neutrophil MPO activity. Nature of the data set: Systemic effect: MPO activity in contralateral vehicle-treated ear after topical application (TPA model). From the text:
These include dexamethasone, a steroid, and indomethasone, a non-steroid anti-inflammatory drug, which targets cycloxygenases.

With `C[C@@H]1C[C@H]2[C@@H]3CCC4=CC(=O)C=C[C@]4(C)[C@@]3(F)[C@@H](O)C[C@]2(C)[C@@]1(O)C(=O)CO` [dexamethasone], under “mouse, in vivo”, the “effect on MPO activity of contralateral vehicle-treated ear (systemic effect)” value was “increasing inhibition of MPO activity”.

In the case of `COc1ccc2c(c1)c(CC(=O)O)c(C)n2C(=O)c1ccc(Cl)cc1` [indomethasone], under “topical, increasing concentration”, the “effect on MPO activity of contralateral vehicle-treated ear (systemic effect)” value is given as “increasing inhibition of MPO activity”.
